This is an account of results in patent US20240239801A1, “PYRIMIDO[5,4,D]PYRIMIDINE COMPOUNDS, COMPOSITIONS COMPRISING THEM AND USES THEREOF” (Université de Montréal, priority 2021, published 2024).

What all share (assay): Phospho-ERK inhibition, AlphaLISA SureFire Ultra p-ERK 1/2
Format in all cases: cell-based, human
A general note: Alpha assays give light when donor and acceptor beads are brought close together.

One assay concerns SK-MEL30 pERK. Particulars: Table D-1; for SK-MEL30 pERK, value in parentheses, % inhibition: % Ymin of pERK IC50 curve. The procedure, abridged:
(§1)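 Cells plated in RPMI-1640 with 5% FBS, held overnight, then exposed 1 h to ten-point compound dilutions (top 30 or 10 μM down to 0.33 nM; 0.5% DMSO). Lysates read for p-ERK1/2 (Thr202/Tyr204) by AlphaLISA; % inhibition relative to DMSO after subtracting a 1 μM trametinib background; IC50 from four-parameter fit.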

Another assay concerns NCI-H2122 pERK. Particulars: Table D-2; for NCI-H2122 pERK, value in parentheses, % inhibition: % Ymin of pERK IC50 curve. The procedure, abridged:
as §1

A further assay has as its system SW620 pERK. Particulars: Table D-2; for pERK IC50 curve bottom (Ymin), %: % Ymin of pERK IC50 curve. The procedure, abridged: as §1
For a further assay, the system named is Calu6 pERK. Particulars: Table D-2; for Calu6 pERK, value in parentheses, % inhibition: % Ymin of pERK IC50 curve. The procedure, abridged: as §1
The subject of the next assay is HepG2 pERK. Particulars: Table D-1; for HepG2 pERK, value in parentheses, % inhibition: % Ymin of pERK IC50 curve. The procedure, abridged: as §1
For the next assay, the system named is NCIH1755 pERK. To be noted: Table D-2; for Ymin of pERK inhibition curve (%): % Ymin of pERK IC50 curve. The procedure, abridged:
as §1

The next assay deals with NCIH2087 pERK. To be noted: Table D-2. The procedure, abridged: as §1
Another assay has as its system Mewo pERK. Particulars: Table D-2; for Mewo pERK, value in parentheses, % inhibition: % Ymin of pERK IC50 curve. The procedure, abridged:
as §1

In another assay the test system is IPC298 pERK. To be noted: Table D-1; for IPC298 pERK, value in parentheses, % inhibition: % Ymin of pERK IC50 curve. The procedure, abridged: as §1
The subject of the next assay is NCI-H358 pERK. To be noted: Table D-2; for NCI-H358 pERK, value in parentheses, % inhibition: % Ymin of pERK IC50 curve. The procedure, abridged: as §1
A further assay relates to Lovo pERK. To be noted: Table D-2; for pERK curve Ymin (%): % Ymin of pERK IC50 curve. The procedure, abridged:
as §1

On to `Cc1c(F)cccc1S(=O)(=O)Nc1ccc(F)c(Nc2ncnc3cnc(-n4cnc5c(-c6cccnc6)cccc54)nc23)c1F` [Example 114], for which the IC50 is 30 to 300 nM in the assay with SK-MEL30 pERK (Homo sapiens, SK-MEL-30); 30 to 300 nM in the assay with NCI-H2122 pERK (Homo sapiens, NCI-H2122); above 300 nM in the assay with SW620 pERK (Homo sapiens, SW-620); 30 to 300 nM in the assay with Calu6 pERK (Homo sapiens, Calu-6); 30 to 300 nM in the assay on HepG2 pERK (Homo sapiens, HepG2); 30 to 300 nM in the assay on NCIH1755 pERK (Homo sapiens, NCI-H1755). Moreover, the IC50 is 30 to 300 nM in the assay on NCIH2087 pERK (Homo sapiens, NCI-H2087); 30 to 300 nM in the assay on Mewo pERK (Homo sapiens, MeWo); 30 to 300 nM with IPC298 pERK (Homo sapiens, IPC-298); above 300 nM in the assay on NCI-H358 pERK (Homo sapiens, NCI-H358); below 30 nM with Lovo pERK (Homo sapiens, LoVo). In addition, the “SK-MEL30 pERK, value in parentheses, % inhibition” value (from here on “SK-MEL30 pERK … % inhibition”) in the assay on SK-MEL30 pERK is recorded as “(−9) %”. For the same compound, the “NCI-H2122 pERK, value in parentheses, % inhibition” value (shortened to “NCI-H2122 pERK … % inhibition”) in the assay with NCI-H2122 pERK is recorded as “(0) %”. The “pERK IC50 curve bottom (Ymin), %” value in the assay on SW620 pERK is recorded as “(−13) %”. For the same compound, in the assay on Calu6 pERK, the “Calu6 pERK, value in parentheses, % inhibition” value (“Calu6 pERK, value … % inhibition” for short) is given as “(8) %”. Besides, the “HepG2 pERK, value in parentheses, % inhibition” value (shortened to “HepG2 pERK, value … % inhibition”) with HepG2 pERK was “(14) %”. In addition, the “Ymin of pERK inhibition curve (%)” value in the assay on NCIH1755 pERK was “(−5) %”. Besides, the “Ymin of pERK IC50 curve (%)” value with NCIH2087 pERK is “(2) %”. Also, the “Mewo pERK, value in parentheses, % inhibition” value (“Mewo pERK, value … % inhibition” below) in the assay on Mewo pERK is “(−12) %”. The “IPC298 pERK, value in parentheses, % inhibition” value (“IPC298 pERK … % inhibition” for short) in the assay with IPC298 pERK is “(1) %”. Further, the “NCI-H358 pERK, value in parentheses, % inhibition” value (“NCI-H358 pERK … % inhibition” for short) in the assay on NCI-H358 pERK is “(−4) %”. In addition, the “pERK curve Ymin (%)” value in the assay on Lovo pERK is recorded as “(4) %”.
As to `COc1ccc(S(=O)(=O)Nc2ccc(F)c(Nc3ncnc4cnc(-n5cnc6c(N)cccc65)nc34)c2F)c(C)c1Cl` [Example 112], in the assay on SK-MEL30 pERK, the IC50 was below 30 nM and the “SK-MEL30 pERK … % inhibition” value is reported as “(6) %”. Also, in the assay on NCI-H2122 pERK, the 50% inhibitory concentration (IC50) lay in the range of 30 to 300 nM and the “NCI-H2122 pERK … % inhibition” value is given as “(−15) %”. In the assay with SW620 pERK, the 50% inhibitory concentration (IC50) is 30 to 300 nM and the “pERK IC50 curve bottom (Ymin), %” value is listed as “(11) %”. Moreover, in the assay on Calu6 pERK, the IC50 is 30 to 300 nM and the “Calu6 pERK, value … % inhibition” value is recorded as “(1) %”. In the assay with HepG2 pERK, the IC50 lay in the range of 30 to 300 nM and the “HepG2 pERK, value … % inhibition” value is on record as “(−10) %”. In addition, in the assay with NCIH1755 pERK, the IC50 was below 30 nM and the “Ymin of pERK inhibition curve (%)” value is given as “(12) %”. Besides, in the assay with NCIH2087 pERK, the IC50 is below 30 nM and the “Ymin of pERK IC50 curve (%)” value is recorded as “(−7) %”. In the assay on Mewo pERK, the concentration for half-maximal inhibition (IC50) was below 30 nM and the “Mewo pERK, value … % inhibition” value is “(12) %”. In the assay on IPC298 pERK, the IC50 fell in the range of 30 to 300 nM and the “IPC298 pERK … % inhibition” value is recorded as “(1) %”. Further, in the assay with NCI-H358 pERK, the IC50 lay in the range of 30 to 300 nM and the “NCI-H358 pERK … % inhibition” value is recorded as “(−8) %”. In addition, in the assay with Lovo pERK, the half-inhibitory concentration (IC50) lay in the range of 30 to 300 nM and the “pERK curve Ymin (%)” value was “(−1) %”.
Turning to `Cc1c(F)cccc1S(=O)(=O)Nc1ccc(F)c(Nc2ncnc3cnc(-n4cc(C(=O)N(C)Cc5ccncc5)c5ccccc54)nc23)c1F` [Example 98], in the assay with SK-MEL30 pERK, the IC50 was below 30 nM and the “SK-MEL30 pERK … % inhibition” value was “(10) %”. Besides, in the assay on NCI-H2122 pERK, the IC50 lay in the range of 30 to 300 nM and the “NCI-H2122 pERK … % inhibition” value is “(26) %”. Also, in the assay with SW620 pERK, the IC50 was 30 to 300 nM and the “pERK IC50 curve bottom (Ymin), %” value is “(36) %”. In addition, in the assay on Calu6 pERK, the IC50 was in the range of 30 to 300 nM and the “Calu6 pERK, value … % inhibition” value was “(5) %”. In addition, in the assay with HepG2 pERK, the IC50 is below 30 nM and the “HepG2 pERK, value … % inhibition” value is given as “(27) %”. Besides, in the assay on NCIH1755 pERK, the IC50 was below 30 nM and the “Ymin of pERK inhibition curve (%)” value was “(9) %”. For the same compound, in the assay with NCIH2087 pERK, the IC50 was below 30 nM and the “Ymin of pERK IC50 curve (%)” value was “(6) %”. Moreover, in the assay on Mewo pERK, the IC50 was 30 to 300 nM and the “Mewo pERK, value … % inhibition” value is given as “(9) %”. For the same compound, in the assay on IPC298 pERK, the IC50 was 30 to 300 nM and the “IPC298 pERK … % inhibition” value is “(13) %”. Further, in the assay on NCI-H358 pERK, the IC50 fell in the range of 30 to 300 nM and the “NCI-H358 pERK … % inhibition” value was “(20) %”. In addition, in the assay on Lovo pERK, the IC50 is 30 to 300 nM and the “pERK curve Ymin (%)” value is “(27) %”.
For `O=S(=O)(Nc1ccc(F)c(Nc2ncnc3cnc(-n4cnc5c(N6CCC7(CCCO7)CC6)cccc54)nc23)c1F)c1cccc(Cl)c1Cl` [Example 129], in the assay on SK-MEL30 pERK, the IC50 was below 30 nM and the “SK-MEL30 pERK … % inhibition” value is on record as “(16) %”. Moreover, in the assay on NCI-H2122 pERK, the half-inhibitory concentration (IC50) is above 300 nM and the “NCI-H2122 pERK … % inhibition” value is given as “(−14) %”. Besides, in the assay on SW620 pERK, the IC50 is above 300 nM and the “pERK IC50 curve bottom (Ymin), %” value was “(−7) %”. Further, in the assay with Calu6 pERK, the IC50 lay within 30 to 300 nM and the “Calu6 pERK, value … % inhibition” value was “(−1) %”. Besides, in the assay with HepG2 pERK, the IC50 fell in the range of 30 to 300 nM and the “HepG2 pERK, value … % inhibition” value is “(−2) %”. Besides, in the assay with NCIH1755 pERK, the IC50 is below 30 nM and the “Ymin of pERK inhibition curve (%)” value is on record as “(−2) %”. Further, in the assay with NCIH2087 pERK, the IC50 is below 30 nM and the “Ymin of pERK IC50 curve (%)” value was “(3) %”. Besides, in the assay with Mewo pERK, the IC50 was in the range of 30 to 300 nM and the “Mewo pERK, value … % inhibition” value was “(−5) %”. In the assay with IPC298 pERK, the IC50 was in the range of 30 to 300 nM and the “IPC298 pERK … % inhibition” value is on record as “(17) %”. Also, in the assay with NCI-H358 pERK, the IC50 is 30 to 300 nM and the “NCI-H358 pERK … % inhibition” value is reported as “(−3) %”. Also, in the assay with Lovo pERK, the IC50 is 30 to 300 nM and the “pERK curve Ymin (%)” value is “(−2) %”.
As to `Cc1ccc2c(Nc3cccc(Cl)c3F)nccc2c1NC(=O)c1csc2c(N)ncnc12` [Belvarafenib, reference compound], the IC50 was below 30 nM with SK-MEL30 pERK (Homo sapiens, SK-MEL-30); 30 to 300 nM in the assay on NCI-H2122 pERK (Homo sapiens, NCI-H2122); 30 to 300 nM in the assay with SW620 pERK (Homo sapiens, SW-620); 30 to 300 nM in the assay on Calu6 pERK (Homo sapiens, Calu-6); 30 to 300 nM with HepG2 pERK (Homo sapiens, HepG2); 30 to 300 nM in the assay with NCIH1755 pERK (Homo sapiens, NCI-H1755). Further, the IC50 was below 30 nM in the assay on NCIH2087 pERK (Homo sapiens, NCI-H2087); 30 to 300 nM with Mewo pERK (Homo sapiens, MeWo); 30 to 300 nM in the assay with IPC298 pERK (Homo sapiens, IPC-298); 30 to 300 nM with NCI-H358 pERK (Homo sapiens, NCI-H358); below 30 nM with Lovo pERK (Homo sapiens, LoVo). Further, the “SK-MEL30 pERK … % inhibition” value in the assay with SK-MEL30 pERK is “(−45) %”. Further, the “NCI-H2122 pERK … % inhibition” value with NCI-H2122 pERK is “(−9) %”. The “Calu6 pERK, value … % inhibition” value with Calu6 pERK is “(−39) %”. In addition, the “HepG2 pERK, value … % inhibition” value in the assay on HepG2 pERK is reported as “(−36) %”. For the same compound, the “Ymin of pERK inhibition curve (%)” value with NCIH1755 pERK is “(−79) %”. Besides, the “Mewo pERK, value … % inhibition” value with Mewo pERK is on record as “(−116) %”. The “IPC298 pERK … % inhibition” value with IPC298 pERK was “(−63) %”. For the same compound, in the assay with NCI-H358 pERK, the “NCI-H358 pERK … % inhibition” value was “(−122) %”. The “pERK curve Ymin (%)” value in the assay with Lovo pERK is on record as “(−12) %”.

The term IC50 denotes the concentration that inhibits the measured activity by half.
